Assays:
293T cells = assay: Thermogenesis by FPT, parental 293T cells; format: cell-based, human; details: heme for 1 hour
Description: (§1) Shown are representative graphs of OCR output of the indicated cells with or without hematin treatment and their responses to oligomycin, FCCP, and rotenone plus antimycin A (FIG. 12B), basal OCR (FIG. 12C), maximal OCR (FIG. 12D), and ECAR (FIG. 12E) from two separate experiments with n=10 biologically independent samples. Data are presented as mean value±standard deviation. Each dot represents one technical replicate. […] Parental and knockout cells were incubated with no probe or FPT for 6 hours, and then washed twice. A portion of FPT-treated cells was treated with heme for 1 hour. FPT fluorescence intensity was quantified by flow cytometry. Shown are representative plots from two separate experiments. P-values were calculated using two-way ANOVA (***p<0.001).
(§2) In the second approach, we used fluorescent polymeric thermometer (FPT), which we synthesized in-house (see above). Parental and knockout THP-1 cells were mixed together, washed and incubated with FPT in 5% w/v glucose solution for 6 hrs. The cells were washed with PBS twice and reseeded in dishes with glass bottom that was coated with poly-lysine. The cells were imaged under Confocal Laser-Scanning Microscopy at 37° C. […] Then the fluorescence intensities were determined by a flow cytometer.

Serca2b^−/− THP-1 cells = assay: Thermogenesis by FPT in Serca2b knockout THP-1 cells; format: cell-based, human; details: 40 μM heme 1 hour, FPT flow cytometry
Description: FIGS. 5A-5F show MFSD7C and heme regulate thermogenesis through SERCA2b in THP-1 cells. […] 30 hours later, MG132 was added into half of the cells and the other half was not treated. Another 35 hours later, some cells were treated with 40 μM heme for 1 hour before lysis. Cell lysates were immunoprecipitated with anti-FLAG antibody, and eluted, followed by anti-HA immunoprecipitation and elution. Total cell lysate and elute were subjected to Western blotting and probed with anti-SERCA2b or anti-MFSD7C antibodies. Shown are representative data from one of three experiments. […] 24 hrs later, cells were either not treated or treated with 10 μM MG132 for either 6 or 12 hours. The cells were lysed and subjected to FLAG pull-down and blotted with anti-MFSD7C, anti-SERCA2b and anti-ubiquitin antibodies. Shown are representative data from one of three experiments. […] Parental THP-1 cells were either not treated or treated with heme before lysis. Shown are representative data from one of four experiments. […] Shown are representative data from one of two experiments. […] Cells were washed and treated with 40 μM heme for one hour before flow cytometry. Representative FPT histograms from one of three experiments are shown. […]
In the second approach, we used fluorescent polymeric thermometer (FPT), which we synthesized in-house (see above). […] Then the fluorescence intensities were determined by a flow cytometer.

THP-1 cells = assay: Mitochondrial membrane potential by TMRE and flow cytometry; format: cell-based, human; details: heme 1 hour, reduced to similar levels as in 7CKO cells
Description: Mitochondrial membrane potential was measured using Abcam kit (Catalog No. ab113852). Briefly, BMDM, THP-1 and 7CKO cells were not treated or treated with […] for 1 hour. The cells were incubated with mitochondrial membrane potential indicator, 200 nM TMRE (tetramethylrhodamine, ethyl ester) for 20 minutes. The mean fluorescence intensity of TMRE were determined by flow cytometry.

MCF7 cells = assay: Thermogenesis by FPT, parental MCF7 cells; format: cell-based, human; details: heme for 1 hour
Description: as §1, §2

HP motif peptide = target: T1, HP motif peptide (Homo sapiens, UniProt Q9UPI3); assay: Heme absorbance-shift assay with wild-type HP motif peptide; format: binding; details: 100 μM heme, various concentrations of HP motif peptide
T1 construct: a synthetic 14-amino acid HP motif peptide; made in house; host or cells: chemical solid-phase synthesis (Koch Institute Biopolymers & Proteomics Core)
Description: Peptide synthesis. Wild-type HP motif peptide (HPSALAQPSGLAHP) and mutant HP motif peptide (APSALAQPSGLAAP) were synthesized using solid-phase synthesis and purified using HPLC by the Biopolymers & Proteomics Core at the Koch Institute for Integrative Cancer Research.
Heme absorbance-shift assay. Hemin was prepared fresh before each experiment. Approximately 20 mg of hemin (Sigma) was placed in a fresh tube and resuspended with 1 mL of DMSO. The hemin solution was slowly diluted while mixing with 1 mL of 2× buffer C (25 mM HEPES-NaOH pH 7.8, 10 mM NaCl), and aggregated hemin was eliminated by passing the solution through a 0.2 μm filter unit. Hemin concentration was determined by diluting the filtered solution with 1× buffer C 1:100 and using the extinction coefficient of 58,400 cm^−1M^−1 at 385 nm. For each reaction, the 200 μL reaction mix containing 100 μM hemin, 25 mM HEPES-NaOH pH 7.8, 10 mM NaCl, and various concentrations of wild-type or mutant NTD protein, was placed in a transparent 96-well plate. Absorbance intensity was measured using Tecan Infinite M200 Pro microplate reader, between 330 and 550 nm using 5 nm steps. The absorbance intensity for dissolved hemin was subtracted from absorbance intensity from hemin incubated with various concentrations of protein.

SMILES: C=CC1=C(C)c2cc3[n-]c(cc4[n-]c(cc5nc(cc1n2)C(C)=C5C=C)c(C)c4CCC(=O)O)c(CCC(=O)O)c3C.[Fe+2] [heme]
- FTP intensity (293T cells): significantly stimulated
- thermogenesis following heme treatment (Serca2b^−/− THP-1 cells): significantly diminished
- MMP (THP-1 cells): reduced
- FTP intensity (MCF7 cells): significantly stimulated
- absorbance shift of heme (Soret band, Q band) (HP motif peptide): concentration-dependent increase in Soret band and Q band peaks

From patent publication US20230313199A1, “TARGET FOR MODULATING BODY MASS” (Massachusetts Institute of Technology, priority 2020, published 2023)
